According to the NIST ThermoML archive (doi:10.1021/je030163d):

Experiment: xn = mol fraction of the nth substance listed
Details: 101.3 kPa, Liquid; for viscosity: Capillary tube (Ostwald / Ubbelohde) method; for mass density: Pycnometric method

CC(=O)c1ccccc1 [acetophenone] + CN(C)C=O
Details	mass density, 298.15 K [kg/m3]	mass density, 303.15 K [kg/m3]	mass density, 308.15 K [kg/m3]	mass density, 313.15 K [kg/m3]	viscosity, 298.15 K [mPa·s]	viscosity, 303.15 K [mPa·s]	viscosity, 308.15 K [mPa·s]	viscosity, 313.15 K [mPa·s]
x2 = 0	1024.1	1019.9	1015.7	1011.2	1.68	1.54	1.41	1.31
x2 = 0.1123	1018	1013.9	1009.7	1005.2	1.584	1.453	1.33	1.238
x2 = 0.1641	1015.6	1011.4	1007.2	1002.7	1.544	1.418	1.299	1.206
x2 = 0.308	1008.8	1004.6	1000.4	995.9	1.43	1.314	1.205	1.123
x2 = 0.4328	1001	996.8	992.5	988	1.328	1.221	1.122	1.047
x2 = 0.5286	994.2	989.9	985.6	981.1	1.246	1.148	1.056	0.987
x2 = 0.6256	985.8	981.4	977.1	972.5	1.156	1.069	0.984	0.922
x2 = 0.7165	977.2	972.8	968.4	963.8	1.072	0.995	0.918	0.862
x2 = 0.7943	969	964.5	960	955.3	0.999	0.93	0.861	0.81
x2 = 0.9378	952.5	947.9	943.3	938.5	0.863	0.809	0.755	0.714

OCc1ccccc1 [benzenemethanol] + CN(C)C=O
Details	mass density, 298.15 K [kg/m3]	mass density, 303.15 K [kg/m3]	mass density, 308.15 K [kg/m3]	mass density, 313.15 K [kg/m3]	viscosity, 298.15 K [mPa·s]	viscosity, 303.15 K [mPa·s]	viscosity, 308.15 K [mPa·s]	viscosity, 313.15 K [mPa·s]
x2 = 0	1041.3	1037.5	1033.7	1029.4	5.16	4.67	4.004	3.52
x2 = 0.1088	1036.1	1032.3	1028.5	1024.3	4.473	4.06	3.51	3.106
x2 = 0.1712	1032.5	1028.7	1024.9	1020.6	4.011	3.648	3.17	2.817
x2 = 0.3055	1022.7	1018.8	1014.9	1010.6	3.14	2.87	2.517	2.26
x2 = 0.4003	1014.8	1010.8	1006.8	1002.4	2.59	2.378	2.1	1.9
x2 = 0.5393	1001.3	997.2	993.1	988.7	2.02	1.86	1.67	1.52
x2 = 0.5865	996.1	992	987.9	983.4	1.85	1.71	1.541	1.411
x2 = 0.717	980.7	976.4	972.1	967.6	1.44	1.335	1.218	1.127
x2 = 0.7962	970.3	965.9	961.5	956.9	1.23	1.146	1.054	0.982
x2 = 0.8972	957.6	953.1	948.7	944	1.001	0.938	0.872	0.819
